In patent publication US20140093513A1, “METHODS OF LOWERING PROPROTEIN CONVERSATE SUBTILISIN/KEXIN TYPE 9 (PCSK9)” (Catabasis Pharmaceuticals, Inc., priority 2012, published 2014):
pIC50: −log10 of the molar value.

Test system: PCSK9
Assay: PCSK9 secretion assay in HepG2 cells (PCSK9 ELISA)
Assay type: cell-based
Settings: HepG2 cells; for pIC50: 16 hours incubation, at least 6 concentrations
Description: HepG2 cells (from ATCC, Catalog no. HB-8065) were maintained in DMEM (Invitrogen) supplemented with 10% fetal bovine serum (Invitrogen). The day prior to the PCSK9 assay, cells are seeded in 96-well collagen coated plates at 25,000 cells/well.
The compounds of the invention were stored at −20° C. until used. The test article compound was dissolved in 100% ethanol to a 50 mM stock solution. This was then diluted in FBS to a final concentration of 1 mM. This solution was placed in a sonicating water bath for 30 minutes. Subsequent dilutions were then made in FBS supplemented with an equivalent volume of ethanol and mixed by vortexing.
HepG2 cells were seeded onto a collagen coated 96-well plate (Becton Dickinson, Catalog no. 35-4407) the day prior to the assay, as described above. The next day, the cell medium was removed, washed once with 100 μL serum free DMEM to remove any residual PCSK9, and replaced with 90 μL of serum free DMEM. Ten microliters of each compound concentration prepared in FBS was then added. Each concentration of compound was tested in triplicate. The compound was incubated with the cells overnight for 16 hours. Following this incubation, 10 μL of AlamarBlue was added to each well and cells incubated for another 2 hours. The plates were then removed and AlamarBlue fluorescence was measured (excitation, 550 nm and […]) to assess cell viability. Cell culture supernatant was then diluted […] 1×RDSP Calibrator Diluent and PCSK9 ELISA was then performed with 50 μL of this diluted sample, as per the manufacturer's instructions. The ELISA was measured on a Victor X5 multilabel plate reader (PerkinElmer) at an absorbance of 450 nm with background correction measured at 550 nm (The PCSK9 Elisa kits can be purchased from R&D System, Catalog no. DPC900).
Alternatively, an IC50 could also be obtained when this type of assay was carried out using at least 6 different concentrations of the test compounds. Table 1 lists the IC50 values for the compounds tested in this assay.

Q: CC/C=C\C/C=C\C/C=C\C/C=C\C/C=C\CCCC(=O)NCC(C)(C)NC(=O)c1cccnc1 [Compound I-21, N-(1-((5Z,8Z,11Z,14Z,17Z)-icosa-5,8,11,14,17-pentaenamido)-2-methylpropan-2-yl)nicotinamide] was tested. Which pIC50 did it give?
A: > 4.60

Q: How did the pIC50 turn out when CC/C=C\C/C=C\C/C=C\C/C=C\C/C=C\CCCC(=O)NCC1CCN(C(=O)c2cccnc2)CC1 [Compound I-29, (5Z,8Z,11Z,14Z,17Z)—N-((1-nicotinoylpiperidin-4-yl)methyl)icosa-5,8,11,14,17-pentaenamide] was run?
A: > 4.60

Q: CC/C=C\C/C=C\C/C=C\C/C=C\C/C=C\CCCC(=O)NCCNC(=O)c1ccccc1 [II-1, N-(2-((5Z,8Z,11Z,14Z,17Z)-icosa-5,8,11,14,17-pentaenamido)ethyl)benzamide] was tested. Which pIC50 did it give?
A: 4.30 to 4.60

Q: And the “lowering of PCSK9” value (at 25 and 50 μM, FIG. 1)?
A: significant lowering of PCSK9

Q: How did the pIC50 turn out when CC/C=C\C/C=C\C/C=C\C/C=C\C/C=C\CCCC(=O)NC[C@H]1CCCN1C(=O)c1cccnc1 [Compound I-33, (5Z,8Z,11Z,14Z,17Z)—N—(((R)-1-nicotinoylpyrrolidin-2-yl)methyl)icosa-5,8,11,14,17-pentaenamide] was run?
A: > 4.60

Q: CC/C=C\C/C=C\C/C=C\C/C=C\C/C=C\CCCC(=O)NCCNC(=O)[C@@H](NC(=O)c1cccnc1)C(C)C [Compound I-25, N—((S)-1-((2-((5Z,8Z,11Z,14Z,17Z)-icosa-5,8,11,14,17-pentaenamido)ethyl)amino)-3-methyl-1-oxobutan-2-yl)nicotinamide] was tested. Which pIC50 did it give?
A: 4.30 to 4.60

Q: How did the pIC50 turn out when CC/C=C\C/C=C\C/C=C\C/C=C\C/C=C\C/C=C\CCC(=O)NCCOCCOCCOCCOC [III-3, (4Z,7Z,10Z,13Z,16Z,19Z)—N-(2,5,8,11-tetraoxamidecan-13-yl)docosa-4,7,10,13,16,19-hexaenamide] was run?
A: > 4.60

Q: How did the pIC50 turn out when CC/C=C\C/C=C\C/C=C\C/C=C\C/C=C\CCCC(=O)N(C)[C@H]1CCN(C(=O)c2cccnc2)C1 [Compound I-49, (5Z,8Z,11Z,14Z,17Z)—N-methyl-N—((S)-1-nicotinoylpyrrolidin-3-yl)icosa-5,8,11,14,17-pentaenamide] was run?
A: 4.30 to 4.60

Q: How did the pIC50 turn out when CC/C=C\C/C=C\C/C=C\C/C=C\C/C=C\CCCC(=O)N1CC[C@H](N(C)C(=O)c2cccnc2)C1 [Compound I-61, N—((S)-1-((5Z,8Z,11Z,14Z,17Z)-icosa-5,8,11,14,17-pentaenoyl)pyrrolidin-3-yl)-N-methylnicotinamide] was run?
A: < 4.30

Q: CC/C=C\C/C=C\C/C=C\C/C=C\C/C=C\C/C=C\CCC(=O)NCCN(C)CCNC(=O)c1cccnc1 [Compound I-2] was tested. Which pIC50 did it give?
A: > 4.60

Q: CC/C=C\C/C=C\C/C=C\C/C=C\C/C=C\CCCC(=O)Nc1nc(C)ncc1CNC(=O)c1cccnc1 [Compound I-64, N-((4-((5Z,8Z,11Z,14Z,17Z)-icosa-5,8,11,14,17-pentaenamido)-2-methylpyrimidin-5-yl)methyl)nicotinamide] was tested. Which pIC50 did it give?
A: 4.30 to 4.60

Q: With CC/C=C\C/C=C\C/C=C\C/C=C\C/C=C\CCCC(=O)N1CCC(NC(=O)C2=CC(=O)C(C)(c3ccccc3)O2)CC1 (stereo not shown) [VII-1, N-(1-((5Z,8Z,11Z,14Z,17Z)-icosa-5,8,11,14,17-pentaenoyl)piperidin-4-yl)-5-methyl-4-oxo-5-phenyl-4,5-dihydrofuran-2-carboxamide] as the compound, how does the pIC50 read?
A: > 4.60

Q: How did the pIC50 turn out when CC/C=C\C/C=C\C/C=C\C/C=C\C/C=C\CCCC(=O)N1CCN(C(=O)c2ccccc2NC(=O)c2cccnc2)CC1 [Compound I-60, N-(2-(4-((5Z,8Z,11Z,14Z,17Z)-icosa-5,8,11,14,17-pentaenoyl)piperazine-1-carbonyl)phenyl)nicotinamide] was run?
A: < 4.30

Q: How did the pIC50 turn out when CC/C=C\C/C=C\C/C=C\C/C=C\C/C=C\CCCC(=O)NCCNC(=O)c1cccnc1O [VI-3, 2-hydroxy-N-(2-((5Z,8Z,11Z,14Z,17Z)-icosa-5,8,11,14,17-pentaenamido)ethyl)nicotinamide] was run?
A: < 4.30

Q: With CC/C=C\C/C=C\C/C=C\C/C=C\C/C=C\CCCC(=O)N1CC[C@@H](NC(=O)c2cnc(C)c[n+]2[O-])C1 [VII-11, 2-(((R)-1-((5Z,8Z,11Z,14Z,17Z)-icosa-5,8,11,14,17-pentaenoyl)pyrrolidin-3-yl)carbamoyl)-5-methylpyrazine 1-oxide] as the compound, how does the pIC50 read?
A: < 4.30

Q: With CC/C=C\C/C=C\C/C=C\C/C=C\C/C=C\CCCC(=O)NCCNC(=O)c1ccc(CCN2CCOCC2)nc1 [Compound V-2, N-(2-((5Z,8Z,11Z,14Z,17Z)-icosa-5,8,11,14,17-pentaenamido)ethyl)-6-(2-morpholinoethyl)nicotinamide] as the compound, how does the pIC50 read?
A: 4.30 to 4.60

Q: With CC/C=C\C/C=C\C/C=C\C/C=C\C/C=C\C/C=C\CCC(=O)NCCNC(=O)C(C)(C)Oc1ccc(C(=O)c2ccc(Cl)cc2)cc1 [II-36, (4Z,7Z,10Z,13Z,16Z,19Z)—N-(2-(2-(4-(4-chlorobenzoyl)phenoxy)-2-methylpropanamido)ethyl)docosa-4,7,10,13,16,19-hexaenamide] as the compound, how does the pIC50 read?
A: > 4.60

Q: With CC/C=C\C/C=C\C/C=C\C/C=C\C/C=C\CCCC(=O)N1CCC(NC(=O)c2c[n+]([O-])cc(C)n2)CC1 [VII-15, 3-((1-((5Z,8Z,11Z,14Z,17Z)-icosa-5,8,11,14,17-pentaenoyl)piperidin-4-yl)carbamoyl)-5-methylpyrazine 1-oxide] as the compound, how does the pIC50 read?
A: > 4.60

Q: How did the pIC50 turn out when CC/C=C\C/C=C\C/C=C\C/C=C\C/C=C\CCCC(=O)NCCNC(=O)c1cccnc1C [VI-6, N-(2-((5Z,8Z,11Z,14Z,17Z)-icosa-5,8,11,14,17-pentaenamido)ethyl)-2-methylnicotinamide] was run?
A: 4.30 to 4.60

Q: CC/C=C\C/C=C\C/C=C\C/C=C\C/C=C\C/C=C\CCC(=O)NCCNC(=O)C(C)(C)CCCOc1cc(C)ccc1C [II-34, (4Z,7Z,10Z,13 Z,16Z,19Z)—N-(2-(5-(2,5-dimethylphenoxy)-2,2-dimethylpentanamido)ethyl)docosa-4,7,10,13,16,19-hexaenamide] was tested. Which pIC50 did it give?
A: > 4.60

Q: CC/C=C\C/C=C\C/C=C\C/C=C\C/C=C\CCCC(=O)NCCCCNC(=O)c1cccnc1 [Compound I-19, N-(4-((5Z,8Z,11Z,14Z,17Z)-icosa-5,8,11,14,17-pentaenamido)butyl)nicotinamide] was tested. Which pIC50 did it give?
A: > 4.60

Q: CC/C=C\C/C=C\C/C=C\C/C=C\C/C=C\CCCC(=O)N1CCC[C@@H]1CNC(=O)c1cnc(C)c[n+]1[O-] [VII-13, 2-((((R)-1-((5Z,8Z,11Z,14Z,17Z)-icosa-5,8,11,14,17-pentaenoyl)pyrrolidin-2-yl)methyl)carbamoyl)-5-methylpyrazine 1-oxide] was tested. Which pIC50 did it give?
A: > 4.60

Q: With CC/C=C\C/C=C\C/C=C\C/C=C\C/C=C\CCCC(=O)NCCNC(=O)c1ccc(CCN2CCCC2)nc1 [Compound V-8, N-(2-((5Z,8Z,11Z,14Z,17Z)-icosa-5,8,11,14,17-pentaenamido)ethyl)-6-(2-(pyrrolidin-1-yl)ethyl)nicotinamide] as the compound, how does the pIC50 read?
A: > 4.60

Q: With CC/C=C\C/C=C\C/C=C\C/C=C\C/C=C\C/C=C\CCC(=O)NCCNC(=O)c1cccnc1 [Compound I-7, N-(2-(4Z,7Z,10Z,13Z,16Z,19Z)-docosa-4,7,10,13,16,19-hexaenamidoethyl)nicotinamide] as the compound, how does the pIC50 read?
A: > 4.60

Q: With CC/C=C\C/C=C\C/C=C\C/C=C\C/C=C\CCCC(=O)NCCNC(=O)C(C)(C)Oc1ccc(Cl)cc1 [II-33, (5Z,8Z,11Z,14Z,17Z)—N-(2-(2-(4-chlorophenoxy)-2-methylpropanamido)ethyl)icosa-5,8,11,14,17-pentaenamide] as the compound, how does the pIC50 read?
A: > 4.60

Q: How did the pIC50 turn out when CC/C=C\C/C=C\C/C=C\C/C=C\C/C=C\CCCC(=O)NCCNC(=O)CNC(=O)c1cccnc1 [Compound I-30, N-(2-((2-((5Z,8Z,11Z,14Z,17Z)-icosa-5,8,11,14,17-pentaenamido)ethyl)amino)-2-oxoethyl)nicotinamide] was run?
A: 4.30 to 4.60

Q: With CC/C=C\C/C=C\C/C=C\C/C=C\C/C=C\CCCC(=O)NCCNC(=O)c1cncc(-c2ccccc2)c1 [VI-2, N-(2-((5Z,8Z,11Z,14Z,17Z)-icosa-5,8,11,14,17-pentaenamido)ethyl)-5-phenylnicotinamide] as the compound, how does the pIC50 read?
A: 4.30 to 4.60

Q: CC/C=C\C/C=C\C/C=C\C/C=C\C/C=C\CCCC(=O)NCCNC(=O)c1cccnc1F [VI-7, 2-fluoro-N-(2-((5Z,8Z,11Z,14Z,17Z)-icosa-5,8,11,14,17-pentaenamido)ethyl)nicotinamide] was tested. Which pIC50 did it give?
A: > 4.60

Q: How did the pIC50 turn out when CC/C=C\C/C=C\C/C=C\C/C=C\C/C=C\CCCC(=O)N1CCC[C@H]1CNC(=O)c1cnc(C)c[n+]1[O-] [VII-14, 2-((((S)-1-((5Z,8Z,11Z,14Z,17Z)-icosa-5,8,11,14,17-pentaenoyl)pyrrolidin-2-yl)methyl)carbamoyl)-5-methylpyrazine 1-oxide] was run?
A: 4.30 to 4.60

Q: With CC/C=C\C/C=C\C/C=C\C/C=C\C/C=C\CCCC(=O)N[C@H]1CCN(C(=O)c2cccnc2)C1 [Compound I-23, (5Z,8Z,11Z,14Z,17Z)—N—((S)-1-nicotinoylpyrrolidin-3-yl)icosa-5,8,11,14,17-pentaenamide] as the compound, how does the pIC50 read?
A: > 4.60

Q: How did the pIC50 turn out when CC/C=C\C/C=C\C/C=C\C/C=C\C/C=C\CCCC(=O)N1CC[C@@H](NC(=O)C(C)(C)Oc2ccc(C(=O)c3ccc(Cl)cc3)cc2)C1 [VII-21, 2-(4-(4-chlorobenzoyl)phenoxy)-N—((R)-1-((5Z,8Z,11Z,14Z,17Z)-icosa-5,8,11,14,17-pentaenoyl)pyrrolidin-3-yl)-2-methylpropanamide] was run?
A: > 4.60
